The data set is described as follows: gradient 5% acetonitrile 3 min, to 50% in 2 min, to 85% in 15 min, held 3 min, 100 µL/min. The following applies: column: Zorbax Extend-C18 2.1 x 50 mm; eluents: water / acetonitrile, 0.1% formic acid. The method, boiled down:
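Using water and acetonitrile that each contained 0.1% formic acid, mixtures of ~100 pure standards were separated at 100 μL/min on a Zorbax Extend-C18 column (2.1 × 50 mm, 1.8 μm). The HPLC fed a quadrupole time-of-flight mass spectrometer working in positive and negative ionization mode, with dead and dwell volumes of 40 μL and 900 μL. Data were acquired over 3 months. Retention time was read from computationally picked adduct peaks after manual inspection of each.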
In turn, `Cn1c(=O)c2cc(C(=O)Nc3ccccc3C(N)=O)cnc2n(-c2ccccc2)c1=O` returned an RP-LC retention time of 788 s. Turning to `Cn1cnc2c(C(=O)N3CCN(c4ncccn4)CC3)nn(-c3ccc(Cl)cc3)c2c1=O`, the RP-LC retention time turned out to be 766 s. The result for `COC(=O)c1ccc2c(=O)n(CCc3ccccc3)c(N3CCC(C)CC3)nc2c1` reads 1380 s; that for `CCOC(=O)c1[nH]c(C)c(CCC(=O)N2CCC(C(=O)NCc3ccc(C)cc3)CC2)c1C`, 826 s; that for `CCS(=O)(=O)N1CC(=O)N(c2ccc(C)c(C)c2)C(C)(C(=O)NCc2ccccc2)C1` (centres undefined), 860 s. Molecule `Cc1ccc2nsnc2c1S(=O)(=O)NCCc1c(C)[nH]c2ccccc12` gave an RP-LC retention time of 948 s. The result for `CN(C)c1cccc(-c2nc(-c3ccc(CNC(=O)C4CC4)s3)no2)c1` reads 680 s.

The molecule `CCn1c(=O)sc2cc(S(=O)(=O)N3CCC(C(=O)NC4CCCC4)CC3)ccc21` gave an RP-LC retention time of 845 s. Molecule `CCN1c2ccc(Cl)cc2C(=O)NC12CCN(C(=O)Nc1ccccc1OC)CC2` yielded an RP-LC retention time of 895 s.

`COc1ccc(NC(=O)c2cnc(N3CCN(C)CC3)nc2N)cc1` displayed an RP-LC retention time of 578 s. The result for `CN(Cc1ccco1)C(=O)c1ccc(-n2cc(CNC(=O)C3CC3)cn2)cc1` reads 676 s. The result for `FC(F)(F)c1ccc(CN2CCN(c3cnn4cnnc4c3)CC2)cc1` reads 594 s; that for `COc1cc(Cl)ccc1C(=O)N(CC1CCOC1)C1CC1` (centres undefined), 803 s. The figure for `COc1cc(NC(=O)N2CCC3(CC2)N=C(c2cccc(F)c2)C(=O)N3)cc(OC)c1` is 822 s; for `OC(COc1cccc2ccccc12)CN1CCN(c2ccc(Cl)cc2)CC1` (centres undefined) it is 856 s; for `Oc1ccc(-c2nc3ncccn3c2Nc2ccc3c(c2)OCCO3)cc1` it is 610 s.

For the molecule `CCOC(=O)C1=C(CNc2ccc(C(F)(F)F)cc2)NC(=O)NC1c1ccc2c(c1)OCO2` (centres undefined), the RP-LC retention time is 966 s.

For `COc1cccc(CCC(=O)N2CCn3cnnc3C2)c1`, the RP-LC retention time was determined as 584 s. `COc1cc(NC(=O)c2ccccc2)c(OC)cc1NC(=O)C=C(C)C` had an RP-LC retention time of 887 s.

Molecule `Cc1ccc(Nc2ncccc2S(N)(=O)=O)cc1C` registered an RP-LC retention time of 852 s. The figure for `C=CCNC(=O)c1nnn(Cc2ccc(C)cc2)c1-n1cccc1` is 966 s. The result for `CCOC(=O)c1noc2ncnc(Nc3cccc(F)c3)c12` reads 616 s; that for `Cc1ccc(-c2csc(Cc3nc(-c4cccc(F)c4)no3)n2)cc1C`, 1360 s. The figure for `COc1ccc2c(c1)C1(CCN(C(=O)Nc3ccccc3)C1)C(=O)N2` (centres undefined) is 694 s; for `O=C(CCn1cnc2cc(-c3noc(COc4ccccc4)n3)ccc21)N1CCCC1` it is 730 s. `COC(=O)CCNC(=O)C1c2ccccc2C(=O)N(C2CCCC2)C12CCCCC2` (centres undefined) showed an RP-LC retention time of 903 s. With `CN1C(=O)c2cccnc2Sc2cc(C(=O)NCc3ccc(Cl)cc3)ccc21`, the RP-LC retention time is 812 s. In turn, `CCc1onc(C)c1C1CCCN1C(=O)c1ccc(OC)c(OC)c1` (centres undefined) came in with an RP-LC retention time of 714 s.

`O=C(c1ccc(N2CCCC2=O)cc1)N1CCCn2nc(-c3ccc(F)cc3)cc2C1`: the RP-LC retention time was 708 s. The figure for `Clc1cc(I)cc(Cl)c1NC1=NCCN1` is 655 s. The result for `CCCn1c(=O)c(C)nc2cc(-c3noc(/C=C/c4cccs4)n3)ccc21` reads 792 s; that for `CN(C)S(=O)(=O)N1CCOc2ccc(CCC(=O)NCC3CC3)cc2C1`, 767 s. The result for `CC(C)n1c2ccccc2c2nnc(SCC(=O)Nc3nc(-c4ccccc4)cs3)nc21` reads 1040 s.

`COc1ccc(CNC(=O)c2[nH]c3cc(C)sc3c2CN(C)C)cc1OC` returned an RP-LC retention time of 641 s. The figure for `Cc1ccccc1Cn1c(CN2CCC(C(=O)N(C)Cc3ccco3)CC2)cc2ccccc21` is 816 s; for `COc1ccc(-c2nnc(-c3ccc(-n4ccnc4)nc3)o2)cc1` it is 654 s; for `COc1ccc(CNC(=O)C2c3ccccc3CC(=O)N2C)cc1` (centres undefined) it is 711 s.

For the molecule `O=C(C1=CN(c2ccc(F)c(Cl)c2)c2ccccc2S1(=O)=O)N1CCOCC1`, the RP-LC retention time stood at 786 s. The result for `CCOC(=O)CN1CCC(c2nnc(-c3ccc(F)cc3)o2)CC1` reads 555 s; that for `Cc1nnc(N2CCCC(C(=O)NCCc3ccco3)C2)c2nn(-c3ccc(Cl)cc3)c(C)c12` (centres undefined), 743 s; that for `O=C(Cn1cnc2c(sc3nc(-c4ccccc4)ccc32)c1=O)NCc1cccs1`, 919 s. The figure for `O=C(Nc1cnn(-c2ncc(N3CCCCC3)cn2)c1)c1ccncc1` is 662 s.

Molecule `CCCCOC(=O)c1[nH]c2c(c1C)C(=O)CC(c1cc(OC)c(OC)c(OC)c1)C2` (centres undefined) had an RP-LC retention time of 1020 s. The result for `O=C(COc1ccc(-c2nnc3n2CCCC3)cc1)Nc1ccc(Cl)cc1` reads 757 s; that for `CN1CCC2(CC1)CN(C(=O)Nc1ccccc1)Cc1ccccc1O2`, 637 s; that for `CC(C)CN(C1CCOCC1)C1CN(C(=O)Nc2ccccc2)C1`, 594 s. The figure for `Cc1ccc(-n2nc3c(=O)n(CCCC(=O)N4CCCC4)nc(C)c3c2C)cc1` is 748 s. The figure for `COc1cccc(NC(=O)C2CCCN(c3nc4ccccc4nc3OC)C2)c1` (centres undefined) is 1100 s; for `COc1ncccc1CNC(=O)c1cccn1C` it is 704 s; for `CCOC(=O)CC1=CC(SCC(=O)N2CCC(C)CC2)=Nc2ccccc2N1` it is 1150 s. `O=C(CNC(=O)C(c1ccccc1)c1ccccc1)NCC(=O)N1CCCc2ccccc21` returned an RP-LC retention time of 875 s. The figure for `CC(C)Cc1noc(C2(F)CCN(S(=O)(=O)c3ccccc3)CC2)n1` is 691 s. The figure for `CCOc1ccc(S(=O)(=O)N(CC(=O)N2CCNCC2)CC2CCCN2CC)cc1` (centres undefined) is 585 s; for `O=C(NCCc1ccccc1)NC1CCN(C(=O)N2C[C@H]3C[C@H](C2)[C@H]2CCCC(=O)N2C3)CC1` it is 658 s. The result for `CCCS(=O)(=O)N1CC(n2cc(C(=O)N3CCCC3)nn2)C1` reads 654 s; that for `COc1ccccc1NC(=O)C1CC(=O)N(c2ccc3oc(C)nc3c2)C1` (centres undefined), 726 s. The molecule `CCC(C)(C)c1ccc(Oc2cccc(C(=O)O)c2)cc1` yielded an RP-LC retention time of 1260 s.

In turn, `Cc1ccc(CNC(=O)c2[nH]c3cc(C)sc3c2CN2CCOCC2)cc1` returned an RP-LC retention time of 735 s. The result for `CCN(CCN(C)C)C(=O)c1cc2c(s1)-c1ccc(Cl)cc1S(=O)(=O)C2` reads 660 s; that for `CCCCN(CC)CCNC(=O)C1CCCN(c2ncnc3c2nc2n3CCCCC2)C1` (centres undefined), 614 s; that for `CCOC(=O)N1CCN(C(=S)Nc2ccc3nc(N4CCN(C)CC4)cc(C)c3c2)CC1`, 540 s. The figure for `Cc1cc(C2CCCN2C(=O)Cc2ccc(F)cc2)no1` (centres undefined) is 775 s; for `Cc1cc(C)cc(C(=O)N2CCCC(C(=O)NC3CCCCCCC3)C2)c1` (centres undefined) it is 1040 s; for `O=c1c2cc3c(cc2nc(SCc2nc(-c4cccc(F)c4)no2)n1Cc1ccccc1)OCO3` it is 1250 s. With `COc1ccccc1CCC(=O)N1CCC[C@@H]1C(=O)NCCc1csc(-c2ccccc2)n1`, the RP-LC retention time was 891 s. The figure for `COc1ccc(OC)c(S(=O)(=O)NCc2ccc3c(c2)CCN3C(C)=O)c1` is 719 s; for `CCn1cc(C(=O)Nc2ccccc2C)c(=O)c2ccc(C)nc21` it is 1090 s.

Regarding `Clc1ccc(-c2nc3cnccn3c2Nc2ccc3c(c2)OCO3)cc1`, the RP-LC retention time came out at 930 s. The result for `Cc1nn(CC(=O)NC2CCCCC2)c(=O)c2c(-n3cccc3)n(-c3ccc(Cl)cc3)nc12` reads 1130 s; that for `COCC(=O)N(CC(=O)N1CCc2sccc2C1COc1ccc(Cl)c(C)c1)C(C)C` (centres undefined), 967 s. The result for `CC(C)n1c(CCNC(=O)Cc2ccsc2)nc2cccnc21` reads 624 s; that for `O=C(NC1CCCCC1)N(Cc1ccccn1)Cc1ccco1`, 635 s; that for `CCOc1ccc(NC(=O)NCCc2nc3cccnc3n2C2CCCC2)cc1`, 721 s. The result for `Cc1ccc(NC(=O)CSc2nc(N3CCCCC3)nc3ccccc23)cc1C` reads 795 s; that for `CCOC(=O)C1=C(CNc2ccc(F)cc2)NC(=O)NC1c1ccccc1` (centres undefined), 868 s; that for `CCCn1cc(C2=CCN(C(=O)Nc3ccc(OC)cc3)CC2)c2cccnc21`, 858 s.

In turn, `O=C(NCCc1c[nH]c2ccc(Cl)cc12)c1cc(-c2ccccn2)nc2ccccc12` registered an RP-LC retention time of 959 s. `CCCC[C@@H](C)/C=C(C)/C=C(\C)C(=O)NC1=C[C@@](O)(/C=C/C=C/C=C/C(=O)NC2=C(O)CCC2=O)[C@@H]2OC2C1=O` (some centres undefined) yielded an RP-LC retention time of 1250 s.

Molecule `Cc1c(S(=O)(=O)Nc2ccccc2)c(C)n(C)c1-c1nnc(C2CCC2)o1` showed an RP-LC retention time of 870 s.
